Source: the supplement of paper PMC12317010
Counter-ions that a name gives are not always drawn.

Experiment: collision cross section in nitrogen (drift tube, single-field); higher = larger gas-phase ion size
[1] = ion type: [M+H], ion source: APCI, ion mode: Positive
[2] = ion type: [M+H], ion source: ESI, ion mode: Positive
[3] = ion type: [M-H], ion source: ESI, ion mode: Negative
[4] = ion type: [M+Na], ion source: ESI, ion mode: Positive
[5] = ion type: [M+], ion source: APCI, ion mode: Positive
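Further: chemical standards at 10 µM analysed by drift tube IMS-QTOF MS in about 3.95 torr nitrogen, mean of duplicate injections differing ≤1%, mass error below 10 ppm.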

Structure (SMILES) | collision cross section in nitrogen [1] [Å²] | collision cross section in nitrogen [2] [Å²] | collision cross section in nitrogen [3] [Å²] | collision cross section in nitrogen [4] [Å²] | further results
Cc1cc(N)n(-c2ccccc2)n1 [3-Methyl-1-phenyl-1H-pyrazol-5-amine] | 136.3 | 136.5 | 136.1 | – | –
Cc1cccc(C(C)(C)C)c1O [2-tert-Butyl-6-methylphenol] | – | – | 138.2 | – | –
CCCCOCCOC(=O)CCCCCCCCC(=O)OCCOCCCC [Bis(2-butoxyethyl) decanedioate] | – | – | – | 197.8 | –
Oc1ccc2ccc3cccc4ccc1c2c34 [1-Hydroxypyrene] | – | – | 146.2 | – | collision cross section in nitrogen [5]: 141.9 Å²
c1ccc2c(c1)sc1ccccc12 [Dibenzothiophene] | – | – | – | – | collision cross section in nitrogen [5]: 130.2 Å²
Cc1ccnc(N)c1 [4-Methylpyridin-2-amine] | 118.1 | 119.5 | – | – | –
CCOC(=O)NNc1nncc2ccccc12 [Todralazine hydrochloride] | 152 | 151.8 | – | 158.8 | –
[O-][Cl+2]([O-])O [Potassium chlorate] | – | – | 104 | – | –
C(=CNc1ccccc1)C=Nc1ccccc1 [N-(3-Anilino-2-propenylidene)aniline monohydrochloride] | – | 159.3 | 158.6 | – | –
CCCCCCCCCCCC[N+](C)(C)C [Dodecyltrimethylammonium chloride] | – | – | – | – | collision cross section in nitrogen (ion source: APCI, ion mode: Positive, ion type: [M]+ (permanent cation)): 175.2 Å²; collision cross section in nitrogen (ion source: ESI, ion mode: Positive, ion type: [M]+ (permanent cation)): 175.9 Å²
CCNC(=O)C1CC(C)CCC1C(C)C (stereo not given) [N-Ethyl-2-(isopropyl)-5-methylcyclohexanecarboxamide] | 153.5 | 152.7 | 155.6 | 171.3 | –
Oc1ccc2ccccc2c1N=Nc1ccccc1 [C.I. Solvent Yellow 14] | 156.9 | – | 160.1 | – | –
COC(=O)C1(O)c2ccccc2-c2ccccc21 [Methyl 9-hydroxy-9H-fluorene-9-carboxylate] | – | – | 150.1 | – | –
On1nnc2ccccc21 [1-Hydroxybenzotriazole] | 124.9 | 125.9 | 122.6 | – | –
Cc1ccc(NC(=O)N(C)C)cc1NC(=O)N(C)C [3,3'-(4-Methylbenzene-1,3-diyl)bis(1,1-dimethylurea)] | – | 162.7 | 165.1 | 167.6 | –
C[C@]12CC[C@@H]3c4ccc(O)cc4C[C@@H](CCCCCCCCCS(=O)CCCC(F)(F)C(F)(F)F)[C@H]3[C@@H]1CC[C@@H]2O (stereo not given in full) [Fulvestrant] | 243.5 | 242.9 | 246.5 | 247.6 | –
CC(C)N1C(=O)c2ccccc2NS1(=O)=O [Bentazone] | – | – | 146.9 | – | –
CCCCOc1ccc(N)cc1 [4-Butyloxyaniline] | – | 153.5 | – | – | –
COc1ccccc1Oc1c(NS(=O)(=O)c2ccc(C(C)(C)C)cc2)nc(-c2ncccn2)nc1OCCO [Bosentan hydrate] | 229.9 | 229.4 | 232.9 | 234.4 | –
CCC(=O)Nc1cccc(N)c1 [N-(3-Aminophenyl)propanamide] | 135.8 | 136.5 | 138.7 | – | –

Structure (SMILES) | collision cross section in nitrogen [1] [Å²] | collision cross section in nitrogen [2] [Å²] | collision cross section in nitrogen [3] [Å²] | collision cross section in nitrogen [4] [Å²] | further results
O=C1C=CC(=O)N1c1cccc(N2C(=O)C=CC2=O)c1 [N,N'-1,3-Phenylenedimaleimide] | 157.9 | – | 155 | – | –
C=C(C)C(=O)NCCCN(C)C [N-(3-Dimethylaminopropyl)methacrylamide] | 135.8 | 137.1 | – | – | –
CC(C)(C)c1cc([N+](=O)[O-])cc([N+](=O)[O-])c1O [Dinoterb] | – | – | 150.1 | – | –
O=C(O)c1cc(C(=O)O)cc(S(=O)(=O)O)c1 [Lithium 3-carboxy-5-sulfobenzoate] | – | – | 147.3 | – | –
CN(CCOc1ccc(CC2SC(=O)NC2=O)cc1)c1ccccn1 (stereo not given) [Rosiglitazone maleate] | 172.4 | 172.5 | 176.3 | 182.7 | –
CCCOC(=O)c1ccccc1C(=O)OCCC [Di-n-propylphthalate] | – | – | – | 171.5 | –
O=C(O)Cn1c(=O)n(Cc2ccc(Br)cc2F)c(=O)c2ccc(Cl)cc21 [Zenarestat] | – | – | 188.9 | – | –
CSc1ccc(Oc2ccc(S(N)(=O)=O)cc2CN(C)C)cc1C | 196.5 | 195.7 | 196.9 | 208.1 | –
O=C(Oc1ccccc1)c1ccccc1C(=O)Oc1ccccc1 [Diphenyl phthalate] | – | – | – | 181.1 | –
O=c1cc(-c2ccccc2)oc2ccccc12 [Flavone] | 146.6 | 146.5 | – | – | –
O=C1C=CC(=O)N1c1ccc(Cc2ccc(N3C(=O)C=CC3=O)cc2)cc1 [Bismaleimide] | 197.5 | – | 174.3 | 182.7 | –
Cc1ccnc2ccccc12 [Lepidine] | 126.3 | 125.4 | – | – | collision cross section in nitrogen [5]: 125.4 Å²
CCN(CC)c1ccccc1 [N,N-Diethylaniline] | – | – | – | 132.8 | –
CCCCN(CCO)CCO [N-Butyldiethanolamine] | 136.3 | 136.7 | – | – | –
CCCCCCOC(=O)CCCCCCCC(=O)OCCCCCC [Dihexyl nonanedioate] | – | – | – | 210.8 | –
C(COCC1CO1)OCC1CO1 (stereo not given) [Ethylene glycol diglycidyl ether] | – | – | – | 135.8 | –
CCCCCCCCCCCCCN1CC(C)OC(C)C1 (stereo not given) [2,6-Dimethyl-4-tridecylmorpholine] | – | 183.5 | – | – | –
CC[C@]12CCCN3CCc4c(n(c5ccccc45)[C@@](O)(C(=O)OC)C1)[C@@H]32 [Vincamine] | 182.5 | 183.2 | – | – | –
CCCCCCCCOC(=O)c1ccc(O)cc1 [Octylparaben] | – | – | 169.1 | – | –
CCCCOC(=O)c1ccccc1C(=O)OCc1ccccc1 [Benzyl butyl phthalate] | – | – | – | 178.3 | –

Structure (SMILES) | collision cross section in nitrogen [1] [Å²] | collision cross section in nitrogen [2] [Å²] | collision cross section in nitrogen [3] [Å²] | collision cross section in nitrogen [4] [Å²] | further results
Cc1nc(-c2ccccn2)ncc1C(=O)Nn1cc(C)c2cc(F)ccc21 | 184.3 | 184.3 | 193.9 | 181.8 | collision cross section in nitrogen [5]: 190.7 Å²
CC(C)(C)N(NC(=O)c1ccc(Cl)cc1)C(=O)c1ccccc1 [Halofenozide] | – | – | 178.2 | 188.3 | –
CCCCNc1ccc(NCCCC)c2c1C(=O)c1ccccc1C2=O [1,4-Bis(butylamino)anthracene-9,10-dione] | 192.4 | 192.8 | – | 207.7 | collision cross section in nitrogen [5]: 190.2 Å²
CN1CCC[C@H]1c1cccnc1 [Nicotine sulfate (2:1)] | 137 | 137.7 | – | – | –
CCc1nc(C)c[nH]1 [2-Ethyl-4-methyl-1H-imidazole] | 120.3 | 121.2 | – | – | –
COCCOC(=O)c1ccccc1C(=O)OCCOC [Di(2-methoxyethyl) phthalate] | – | – | – | 161.7 | –
Nc1ccc(Oc2cccc(Oc3ccc(N)cc3)c2)cc1 [1,3-Phenylenedi(4-aminophenyl ether)] | 167.2 | 168.2 | – | – | collision cross section in nitrogen [5]: 177.7 Å²
CC/C(=C(/CC)c1ccc(O)cc1)c1ccc(O)cc1 [Diethylstilbestrol] | – | – | 176.2 | – | –
NCCCOCCOCCOCCCN [3,3'-[Oxybis(ethane-2,1-diyloxy)]dipropan-1-amine] | 147.9 | 148.3 | – | 150.3 | –
O=C(O)c1ccccc1C(c1ccc(O)cc1)c1ccc(O)cc1 [Phenolphthalin] | – | – | 184.1 | – | –
Cc1ccc(O)c(-n2nc3ccccc3n2)c1 [2-(2H-Benzotriazol-2-yl)-4-methylphenol] | – | – | 155.4 | – | –
CC(C)Nc1nc(Cl)nc(NC(C)C)n1 [2,4-Bis(isopropylamino)-6-chloro-1,3,5-triazine] | 154.9 | 155.3 | – | – | –
Nc1ccc2cc(S(=O)(=O)O)cc(O)c2c1N=Nc1ccccc1C(F)(F)F [Acid Red 337] | – | 191.7 | 195.6 | – | –
N[C@@H](CCC(=O)O)C(=O)O [L-Glutamic acid hydrochloride] | – | – | 125.9 | – | –
CCCCCCOC(=O)c1ccccc1C(=O)OCCCCCC [Dihexyl phthalate] | – | – | – | 202.6 | –
Cc1ccc2oc(CN(Cc3ccccc3)C(=O)Nc3c(F)cc(F)cc3F)c(-c3ccc(Cl)cc3)c2c1 | – | – | 225.2 | 226.8 | –
Cc1ccc(S(=O)(=O)O)c(C)c1 [Sodium m-xylene-4-sulfonate] | – | – | 138.9 | – | –
CNC(=O)C(c1ccccc1)c1ccccc1 [N-methyl-alpha-phenylbenzeneacetamide] | 153.4 | 152.9 | – | 162.2 | –
Cc1ccc(S(=O)(=O)C(I)I)cc1 [Diiodomethyl 4-methylphenyl sulfone] | – | – | 151.9 | – | –
CN(C)C(=O)NC1(c2ccccc2)CCN(CC[C@@]2(c3ccc(F)c(F)c3)CN(C(=O)c3ccccc3)CCO2)CC1 | 241.2 | 241.6 | – | 243 | –
